Source: PubChem BioAssay (NCI)
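Results reflect a 48-hour exposure of cells in 96-well plates to compound at five concentrations. GI50 = concentration required for 50% inhibition of growth. TGI denotes the concentration required for complete inhibition of growth.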

Assays:
Assay in all cases: NCI-60 cell line screen, 48 h
SK-OV-3 ovarian = tested on: SK-OV-3 ovarian
HCC-2998 colon = tested on: HCC-2998 colon
LOX IMVI melanoma = tested on: LOX IMVI melanoma
HCT-116 colon = tested on: HCT-116 colon
SR leukemia = tested on: SR leukemia
U251 CNS = tested on: U251 CNS
BT-549 breast = tested on: BT-549 breast
DU-145 prostate = tested on: DU-145 prostate
RXF 393 renal = tested on: RXF 393 renal
UACC-62 melanoma = tested on: UACC-62 melanoma
SK-MEL-5 melanoma = tested on: SK-MEL-5 melanoma
NCI-H522 lung = tested on: NCI-H522 lung
CCRF-CEM leukemia = tested on: CCRF-CEM leukemia
UO-31 renal = tested on: UO-31 renal
NCI-H460 lung = tested on: NCI-H460 lung
K-562 leukemia = tested on: K-562 leukemia
HCT-15 colon = tested on: HCT-15 colon
SK-MEL-28 melanoma = tested on: SK-MEL-28 melanoma
ACHN renal = tested on: ACHN renal
SN12C renal = tested on: SN12C renal
SNB-19 CNS = tested on: SNB-19 CNS
UACC-257 melanoma = tested on: UACC-257 melanoma
OVCAR-3 ovarian = tested on: OVCAR-3 ovarian
MDA-MB-231 breast = tested on: MDA-MB-231 breast
KM12 colon = tested on: KM12 colon
IGROV1 ovarian = tested on: IGROV1 ovarian
RPMI-8226 leukemia = tested on: RPMI-8226 leukemia
TK-10 renal = tested on: TK-10 renal
OVCAR-8 ovarian = tested on: OVCAR-8 ovarian
CAKI-1 renal = tested on: CAKI-1 renal
HOP-62 NSCLC = tested on: HOP-62 NSCLC
MOLT-4 leukemia = tested on: MOLT-4 leukemia
OVCAR-4 ovarian = tested on: OVCAR-4 ovarian
T-47D breast = tested on: T-47D breast
HL-60(TB) leukemia = tested on: HL-60(TB) leukemia
SF-295 CNS = tested on: SF-295 CNS
HT29 colon = tested on: HT29 colon
HS 578T breast = tested on: HS 578T breast
A549 NSCLC = tested on: A549 NSCLC
PC-3 prostate = tested on: PC-3 prostate
NCI/ADR-RES ovarian = tested on: NCI/ADR-RES ovarian
COLO 205 colon = tested on: COLO 205 colon
SF-539 CNS = tested on: SF-539 CNS
NCI-H226 lung = tested on: NCI-H226 lung
A498 renal = tested on: A498 renal
EKVX NSCLC = tested on: EKVX NSCLC
MDA-MB-435 = tested on: MDA-MB-435
SW-620 colon = tested on: SW-620 colon
MCF7 breast = tested on: MCF7 breast
HOP-92 NSCLC = tested on: HOP-92 NSCLC
M14 melanoma = tested on: M14 melanoma
SF-268 CNS = tested on: SF-268 CNS
MALME-3M melanoma = tested on: MALME-3M melanoma
SNB-75 CNS = tested on: SNB-75 CNS
786-0 renal = tested on: 786-0 renal
SK-MEL-2 melanoma = tested on: SK-MEL-2 melanoma
OVCAR-5 ovarian = tested on: OVCAR-5 ovarian

Which GI50 (SK-OV-3 ovarian) does the source give for `CCCC(=O)NC(c1cccnc1)c1cc(C(C)(C)C)c2cccnc2c1O` (centres undefined) here?
The GI50 was 3.46 µM.

What about the TGI (SK-OV-3 ovarian) of the same molecule?
The TGI was 71.7 µM.

And the GI50 (HCC-2998 colon)?
Its GI50 is 7.41 µM.

What about the TGI (HCC-2998 colon) of the same molecule?
Its TGI is greater than 100 µM.

What about the GI50 (LOX IMVI melanoma) of the same molecule?
Its GI50 is 3.78 µM.

What about the TGI (LOX IMVI melanoma) of the same molecule?
The TGI was greater than 100 µM.

And the GI50 (HCT-116 colon)?
Its GI50 is 3.74 µM.

And the TGI (HCT-116 colon)?
The TGI was greater than 100 µM.

And the GI50 (SR leukemia)?
Its GI50 is 3.69 µM.

And the TGI (SR leukemia)?
The TGI was greater than 100 µM.

What about the GI50 (U251 CNS) of the same molecule?
Its GI50 is 4.12 µM.

And the TGI (U251 CNS)?
The TGI was greater than 100 µM.

And the GI50 (BT-549 breast)?
The GI50 was 5.06 µM.

What about the TGI (BT-549 breast) of the same molecule?
Its TGI is greater than 100 µM.

And the GI50 (DU-145 prostate)?
Its GI50 is 11.3 µM.

And the TGI (DU-145 prostate)?
The TGI was greater than 100 µM.

What about the GI50 (RXF 393 renal) of the same molecule?
The GI50 was 4.31 µM.

And the TGI (RXF 393 renal)?
The TGI was greater than 100 µM.

What about the GI50 (UACC-62 melanoma) of the same molecule?
The GI50 was 3.24 µM.

What about the TGI (UACC-62 melanoma) of the same molecule?
The TGI was 19.6 µM.

And the GI50 (SK-MEL-5 melanoma)?
The GI50 was 13.7 µM.

And the TGI (SK-MEL-5 melanoma)?
The TGI was 48.4 µM.

And the GI50 (NCI-H522 lung)?
Its GI50 is 2.78 µM.

And the TGI (NCI-H522 lung)?
Its TGI is 20.4 µM.

And the GI50 (CCRF-CEM leukemia)?
The GI50 was 2.63 µM.

What about the TGI (CCRF-CEM leukemia) of the same molecule?
Its TGI is greater than 100 µM.

And the GI50 (UO-31 renal)?
The GI50 was 2.22 µM.

What about the TGI (UO-31 renal) of the same molecule?
Its TGI is greater than 100 µM.

What about the GI50 (NCI-H460 lung) of the same molecule?
Its GI50 is 3.89 µM.

And the TGI (NCI-H460 lung)?
Its TGI is greater than 100 µM.

And the GI50 (K-562 leukemia)?
Its GI50 is 3.45 µM.

What about the TGI (K-562 leukemia) of the same molecule?
The TGI was greater than 100 µM.

What about the GI50 (HCT-15 colon) of the same molecule?
The GI50 was 3.24 µM.

And the TGI (HCT-15 colon)?
The TGI was greater than 100 µM.

What about the GI50 (SK-MEL-28 melanoma) of the same molecule?
The GI50 was 4.86 µM.

What about the TGI (SK-MEL-28 melanoma) of the same molecule?
The TGI was greater than 100 µM.

What about the GI50 (ACHN renal) of the same molecule?
The GI50 was 3.62 µM.

And the TGI (ACHN renal)?
Its TGI is greater than 100 µM.

And the GI50 (SN12C renal)?
Its GI50 is 7.13 µM.

What about the TGI (SN12C renal) of the same molecule?
Its TGI is greater than 100 µM.

What about the GI50 (SNB-19 CNS) of the same molecule?
The GI50 was 8.15 µM.

And the TGI (SNB-19 CNS)?
Its TGI is greater than 100 µM.

And the GI50 (UACC-257 melanoma)?
Its GI50 is 3.82 µM.

What about the TGI (UACC-257 melanoma) of the same molecule?
The TGI was 66.4 µM.

And the GI50 (OVCAR-3 ovarian)?
The GI50 was 3.98 µM.

And the TGI (OVCAR-3 ovarian)?
The TGI was greater than 100 µM.

And the GI50 (MDA-MB-231 breast)?
The GI50 was 6.3 µM.

What about the TGI (MDA-MB-231 breast) of the same molecule?
Its TGI is greater than 100 µM.

And the GI50 (KM12 colon)?
The GI50 was 6.8 µM.

And the TGI (KM12 colon)?
The TGI was greater than 100 µM.

What about the GI50 (IGROV1 ovarian) of the same molecule?
Its GI50 is 3.7 µM.

What about the TGI (IGROV1 ovarian) of the same molecule?
Its TGI is greater than 100 µM.

And the GI50 (RPMI-8226 leukemia)?
Its GI50 is 4.35 µM.

And the TGI (RPMI-8226 leukemia)?
Its TGI is greater than 100 µM.

What about the GI50 (TK-10 renal) of the same molecule?
The GI50 was 5.48 µM.

What about the TGI (TK-10 renal) of the same molecule?
Its TGI is greater than 100 µM.

What about the GI50 (OVCAR-8 ovarian) of the same molecule?
The GI50 was 4 µM.

And the TGI (OVCAR-8 ovarian)?
Its TGI is greater than 100 µM.

What about the GI50 (CAKI-1 renal) of the same molecule?
The GI50 was 3.19 µM.

What about the TGI (CAKI-1 renal) of the same molecule?
Its TGI is greater than 100 µM.

What about the GI50 (HOP-62 NSCLC) of the same molecule?
Its GI50 is 4.15 µM.

And the TGI (HOP-62 NSCLC)?
Its TGI is greater than 100 µM.

And the GI50 (MOLT-4 leukemia)?
The GI50 was 3.53 µM.

What about the TGI (MOLT-4 leukemia) of the same molecule?
Its TGI is greater than 100 µM.

What about the GI50 (OVCAR-4 ovarian) of the same molecule?
The GI50 was 3.82 µM.

And the TGI (OVCAR-4 ovarian)?
Its TGI is greater than 100 µM.

And the GI50 (T-47D breast)?
The GI50 was 3.59 µM.

And the TGI (T-47D breast)?
Its TGI is greater than 100 µM.

What about the GI50 (HL-60(TB) leukemia) of the same molecule?
The GI50 was 2.86 µM.

What about the TGI (HL-60(TB) leukemia) of the same molecule?
Its TGI is 21.1 µM.

What about the GI50 (SF-295 CNS) of the same molecule?
The GI50 was 4.24 µM.

And the TGI (SF-295 CNS)?
Its TGI is greater than 100 µM.

And the GI50 (HT29 colon)?
Its GI50 is 4.32 µM.

What about the TGI (HT29 colon) of the same molecule?
The TGI was greater than 100 µM.

And the GI50 (HS 578T breast)?
The GI50 was 7.31 µM.

What about the TGI (HS 578T breast) of the same molecule?
Its TGI is greater than 100 µM.

What about the GI50 (A549 NSCLC) of the same molecule?
The GI50 was 5.68 µM.

And the TGI (A549 NSCLC)?
Its TGI is greater than 100 µM.

What about the GI50 (PC-3 prostate) of the same molecule?
The GI50 was 4.39 µM.

And the TGI (PC-3 prostate)?
Its TGI is greater than 100 µM.

And the GI50 (NCI/ADR-RES ovarian)?
Its GI50 is 2.54 µM.

What about the TGI (NCI/ADR-RES ovarian) of the same molecule?
The TGI was greater than 100 µM.

What about the GI50 (COLO 205 colon) of the same molecule?
Its GI50 is 3.25 µM.

What about the TGI (COLO 205 colon) of the same molecule?
Its TGI is greater than 100 µM.

And the GI50 (SF-539 CNS)?
Its GI50 is 4.37 µM.

And the TGI (SF-539 CNS)?
The TGI was greater than 100 µM.

What about the GI50 (NCI-H226 lung) of the same molecule?
The GI50 was 3.75 µM.

What about the TGI (NCI-H226 lung) of the same molecule?
Its TGI is 83.1 µM.

What about the GI50 (A498 renal) of the same molecule?
Its GI50 is greater than 100 µM.

What about the TGI (A498 renal) of the same molecule?
The TGI was greater than 100 µM.

And the GI50 (EKVX NSCLC)?
Its GI50 is 5.19 µM.

What about the TGI (EKVX NSCLC) of the same molecule?
Its TGI is greater than 100 µM.

And the GI50 (MDA-MB-435)?
Its GI50 is 6.94 µM.

And the TGI (MDA-MB-435)?
The TGI was greater than 100 µM.

And the GI50 (SW-620 colon)?
Its GI50 is 6.07 µM.

What about the TGI (SW-620 colon) of the same molecule?
Its TGI is greater than 100 µM.

And the GI50 (MCF7 breast)?
The GI50 was 2.97 µM.

And the TGI (MCF7 breast)?
Its TGI is greater than 100 µM.

What about the GI50 (HOP-92 NSCLC) of the same molecule?
The GI50 was 1.53 µM.

What about the TGI (HOP-92 NSCLC) of the same molecule?
The TGI was 16.2 µM.

What about the GI50 (M14 melanoma) of the same molecule?
Its GI50 is 3.91 µM.

And the TGI (M14 melanoma)?
The TGI was 44 µM.

What about the GI50 (SF-268 CNS) of the same molecule?
Its GI50 is 5.11 µM.

What about the TGI (SF-268 CNS) of the same molecule?
Its TGI is greater than 100 µM.

And the GI50 (MALME-3M melanoma)?
The GI50 was 10.6 µM.

What about the TGI (MALME-3M melanoma) of the same molecule?
Its TGI is greater than 100 µM.

And the GI50 (SNB-75 CNS)?
The GI50 was 2.51 µM.

What about the TGI (SNB-75 CNS) of the same molecule?
The TGI was 16.4 µM.

What about the GI50 (786-0 renal) of the same molecule?
Its GI50 is 4.61 µM.

And the TGI (786-0 renal)?
Its TGI is greater than 100 µM.

And the GI50 (SK-MEL-2 melanoma)?
The GI50 was 6.7 µM.

And the TGI (SK-MEL-2 melanoma)?
Its TGI is greater than 100 µM.

What about the GI50 (OVCAR-5 ovarian) of the same molecule?
Its GI50 is 6.96 µM.

And the TGI (OVCAR-5 ovarian)?
Its TGI is greater than 100 µM.
